Test results taken from patent US5942522A, “Antiviral compounds and antihypertensive compounds” (Schering Corporation, priority 1997, dated 1999).
In brackets after ≈: the same amount, converted by molar mass. Read-outs that look alike come from different tables or passages of the source.

Key:
HSV-2 (strain MS) = experiment: HSV-β-Gal assay: transient expression of beta galactosidase in transfected HeLa cells superinfected with HSV-2; assay type: cell-based
Experimental: (§1) HeLa and Vero cell cultures were maintained in Eagles Minimal Essential Medium (EMEM) which was supplemented with glutamine, penicillin, streptomycin and 10% fetal calf serum (10% EMEM). Stock cultures of HSV-2 (strain MS available from ATCC VR-540) were grown in and harvested from Vero cells. Viral stocks were titered in Vero cells according to established procedures.
Plasmid pON 245^ori- contains the promoter of the HSV-1 thymidine kinase (tk) gene located immediately 5'of the E. coli lac Z gene. In this arrangement, the tk promoter controls transcription from the bacterial gene in transient expression assays. Additionally, an SV40 polyadenylation signal is present at the 3' end of the lac Z gene to allow for the efficient translation of the mRNA in eucaryotic cells. The expression of beta galactosidase in a transient assay using pON 245^ori- is dependent upon superinfection of the transfected cells with HSV. […] For example see U.S. application Ser. No. 07/435,491 filed Sep. 5, 1989, the disclosure of which is incorporated herein by reference thereto.
HeLa cells were seeded into 96 well microtiter plates and allowed to grow to 80% confluency (approximately 35000 cells/well). One half microgram of plasmid pON 245^ori- DNA was introduced into the cells of each well by the […] precipitation technique (Grahman and Van der Eb, 1973). Four to six hours later, the cells were rinsed with hank's Balanced Salt Solution (HBSS), overlaid with 10% EMEM and incubated at 37° C. At 24 hours post-transfection, cells were rinsed, overlaid with 10% EMEM again and re-incubated at 37° C. At 48 hours post-transfection, cells were rinsed and overlaid with either EMEM containing 2% fetal calf serum (2% EMEM), 2% EMEM containing HSV-2 (strain MS, Multiplicity of Infection [moi]=5 pfu/cell) or 2% EMEM containing HSV-2 and the appropriate concentration of Schering compound to be tested. Twenty-four hours later, the cells were harvested and assayed for beta galactosidase activity as described below.
All determinations of beta galactosidase activity were performed in 96 well microtiter plates. The intracellular level of beta galactosidase activity in each well was determined from cell lysates of the monolayer cultures. Aliquots were assayed by incubation in the presence of beta galactosidase substrate, 4-methylumbelliferyl-β-D-galactoside (MUG, 125 ug/ml, Sigma), for 2 hours. The generation of fluorescent product was quantified on a Microfluor microfluorimeter (Dynatech) after addition of 0.1M glycine, pH 10.3 (Spaete and Mocarski, 1985). The inhibitory activity of a compound was plotted versus the concentration and an IC50 value (the concentration of compound required to reduce beta glactosidase expression by 50%) was obtained for each compound tested.

[1] = Compound toxicity assay: inhibition of HeLa cell translation (3H-leucine incorporation); assay type: cell-based; details: human, HeLa cells
Experimental: as §1
HeLa cells were treated with inhibitory compound for 24 hours, after which levels of translational activity were assayed.
For assay of translational activity, HeLa cultures were grown to 80% confluency in 96 well microtiter plates, treated with appropriate concentrations of compound in 2% EMEM during an overnight incubation at 37° C., then rinsed with HBSS and overlaid with […] of 2% EMEM containing 8 uCi of tritiated leucine (^3 H-LEU, […], Amersham Corp., Arlington Heights, Ill.). After a 1 hour incubation at 36.5°C., the cells were rinsed twice with phosphate buffered saline (PBS) and lysed in 400 ul/well of 1×PBS, 0.5% sodium dodecyl sulphate (SDS). After a 10 min incubation at 36.5° C., the contents of the well were transferred to a well in a Millititer HA microfiltration plate (Millipore Corp., Bedford, Mass.). The TCA insoluble proteins were precipitated onto the filter disc by a 10 min fixation with 5% TCA, followed by filtration under vacuum and three 10 minute rinses with 95% ethanol. The filters were dried at room temperature, cut from the milltitier plate and transferred to scintillation vials. TCA precipitable counts were assayed in 5 ml of Scintisol (Isolab, Akron, Ohio). The inhibitory activity of a compound was plotted versus the concentration and an IC50 value (that concentration of the compound required to decrease cellular translational activity by 50%) was derived for each compound.

[2] = Human alphaherpesvirus 2, Table II, HeLa cells, HSV-2 strain MS, 24 h, read-out: Anti-HSV activity, HSV-β-GAL assay IC50
[3] = Table II, read-out: Cytotoxicity 3H-LEU assay IC50
[4] = Human alphaherpesvirus 2, Table II^1, HeLa cells, HSV-2 strain MS, 24 h, read-out: Anti-HSV activity HSV-β-Gal assay IC50
[5] = Human alphaherpesvirus 2, HeLa, read-out: HSV: antiHSV activity, HSVβ-Gal Assay, IC50
[6] = Human alphaherpesvirus 2, HeLa, 24 h, read-out: Anti-HSV activity, HSV-β-GAL assay IC50

Compound	IC50 (HSV-2 (strain MS); [2]) [µg/mL]	CC50 at 24 h [1, 3] [µg/mL]	further results
Cc1cc2c(OCCN(C)C)c(SCO)c(=O)n(Cc3ccc(O[Si](C)(C)C(C)(C)C)cc3)c2cc1C [Compound 5]	3 (≈ 5.53 µM)	15 (≈ 27.6 µM)	–
CCCCCCn1c(=O)c(C(=O)OCC)c(OC)c2cc(C)ccc21 [Compound 19, 1-hexyl-3-ethoxycarbonyl-4-methoxy-6-methyl-2(1H)-quinolinone]	7 (≈ 20.3 µM)	–	–
Cc1c(OC(=O)c2ccco2)ccc2c(N)cc(=O)oc12 [Compound 65, 4-Amino-7-(2-Furoyloxy)-8-Methyl-Benzopyran-2-one]	–	–	IC50 (HSV-2 (strain MS); [4]): > 25 µg/mL
Cc1c(OC(=O)c2cccs2)ccc2c(N)cc(=O)oc12 [Compound 66, 4-Amino-7-(Thiophene-2-carbonyloxy)-8-Methyl-Benzopyran-2-one]	–	–	IC50 (HSV-2 (strain MS); [4]): > 25 µg/mL
CCCCCCn1c(=O)c(Cn2cnnn2)c(OC)c2cc(C)ccc21 [Compound 14, 1-Hexyl-3-(1-Tetrazolylmethyl)-4-Methoxy-6-Methyl-2(1H)-Quinolinone]	5 (≈ 14.1 µM)	> 100	–
COc1c(CCO)c(=O)n(C)c2ccccc12 [Compound 106]	–	–	IC50 (HSV-2 (strain MS); [5]): > 25 µg/mL
CCCCCCn1c(=O)c(C2NCCS2)c(OC)c2ccccc21 (stereo not shown) [Compound 2, 1-Hexyl-3-(2-thiazolidinyl)-4-methoxy-2(1H)-Quinolinone]	–	32 (≈ 92.4 µM)	IC50 (HSV-2 (strain MS); [6]): 2 µg/mL (≈ 5.77 µM)
C=CCOC(=O)c1c(OC)c2cc(C)ccc2n(CCCCCC)c1=O [Compound 104]	–	–	IC50 (HSV-2 (strain MS); [5]): > 25 µg/mL
Cc1c(OC(=O)[C@H](C)NC(=O)OC(C)(C)C)ccc2c(N)cc(=O)oc12 [Compound 71, 4-Amino-7-(BOC-L-Alanyloxy)-8-Methyl-Benzopyran-2-one]	–	–	IC50 (HSV-2 (strain MS); [4]): > 25 µg/mL
CCCCCCn1c(=O)c(C2OCCO2)c(OC)c2ccccc21 [Compound 24]	10 (≈ 30.2 µM)	–	–
CCCCCCn1c(=O)c(C=NO)c(OC)c2ccccc21 [Compound 17, 1-Hexyl-3-Hydroximinomethyl-4-Methoxy-2(1H)-Quinolinone]	6 (≈ 19.8 µM)	25 (≈ 82.7 µM)	–
COc1c(Sc2ccccc2)c(=O)n(C)c2ccc(F)cc12 [Compound 22]	8 (≈ 25.4 µM)	25 (≈ 79.3 µM)	–
CCCCCCn1c(=O)c(Cn2cncn2)c(OC)c2ccccc21 [Compound 16, 1-Hexyl-3(1,2,4-Triazol-1-ylmethyl)-4-Methoxy-2(1H)-Quinolinone]	5 (≈ 14.7 µM)	18 (≈ 52.9 µM)	–
COc1c(SC)c(=O)n(Cc2ccc(O)cc2)c2cc(C)c(C)cc12 [Compound 25]	10 (≈ 28.1 µM)	–	–
CON=Cc1c(OC)c2ccccc2n(Cc2ccccc2)c1=O [Compound 20, 1-Benzyl-3-Methoxyiminomethyl-4-Methoxy-2(1H)-Quinolinone]	7 (≈ 21.7 µM)	–	–
CCCCCCn1c(=O)c(C2OCCO2)c(OC)c2cc(C)ccc21 [Compound 23, 1-Hexyl-3-[2-(1,3-dioxolano)]-4-methoxy-6-methyl-2(1H)-Quinolinone]	9 (≈ 26.1 µM)	> 100	–
CCCCCCn1c(=O)c(Cn2cnnn2)c(OC)c2ccccc21 [Compound 18, 1-Hexyl-3-(1-tetrazolymethyl)-4-methoxy-2(1H)-quinolinone]	6 (≈ 17.6 µM)	18 (≈ 52.7 µM)	–
CCCCCCn1c(=O)c(C(=O)O)c(OC)c2cc(C)ccc21 [Compound 105]	–	–	IC50 (HSV-2 (strain MS); [5]): > 25 µg/mL

Compound	IC50 (HSV-2 (strain MS); [2]) [µg/mL]	CC50 at 24 h [1, 3] [µg/mL]	further results
CC(=O)Oc1c(Sc2ccccc2)c(=O)n(C)c2ccc(F)cc12 [Compound 102]	–	–	IC50 (HSV-2 (strain MS); [5]): 21 µg/mL (≈ 61.2 µM)
COc1c(SC)c(=O)n(Cc2ccc(O[Si](C)(C)C(C)(C)C)cc2)c2cc(C)c(C)cc12 [Compound 1]	1.5 (≈ 3.19 µM)	1.8 (≈ 3.83 µM)	–
Cc1c(OC(=O)c2ccncc2)ccc2c(N)cc(=O)oc12 [Compound 67, 4-Amino-7-Isonicotinoxy-8-Methyl-Benzopyran-2-one]	–	–	IC50 (HSV-2 (strain MS); [4]): 14 µg/mL (≈ 47.3 µM)
CCCCCCn1c(=O)c(Cn2ncnn2)c(OC)c2ccccc21 [Compound 6, 1-hexyl-3-(2-tetrazolylmethyl)-4-methoxy-2(1H)-quinolinone]	–	7 (≈ 20.5 µM)	IC50 (HSV-2 (strain MS); [6]): 3 µg/mL (≈ 8.79 µM)
CCCCCCn1c(=O)c(CBr)c(OC)c2ccccc21 [Compound 15, 1-Hexyl-3-Bromomethyl-4-Methoxy-2(1H)-Quinolinone]	5 (≈ 14.2 µM)	25 (≈ 71 µM)	–
CCCCCCn1c(=O)c(C=NOC)c(OC)c2cc(C)ccc21 [Compound 26, 1-Hexyl-3-Methoximinomethyl-4-Methoxy-6-Methyl-2(1H)-Quinolinone]	7 (≈ 21.2 µM)	27 (≈ 81.7 µM)	–
4-Amino-7-Acetyloxy-8-Methyl-Benzopyran-2-one [Compound 68]	–	–	Anti-HSV activity HSV-β-Gal assay IC50 (HSV-2 (strain MS); Table II^1, HeLa cells, HSV-2 strain MS, 24 h): 30.0 µg/mL
CCCCCCn1c(=O)c(Cn2cnnc2)c(OC)c2cc(C)ccc21 [Compound 12, 1-hexyl-3-(1,2,4-triazol-4-ylmethyl)-4-methoxy-6-methyl-2(1H)-quinolinone]	4.5 (≈ 12.7 µM)	32 (≈ 90.3 µM)	–
CCCCCCn1c(=O)c(C=NOC)c(OC)c2ccccc21 [Compound 3, 1-Hexyl-3-Methoximinomethyl-4-Methoxy-2(1H)-Quinolinone]	2.5 (≈ 7.9 µM)	12.6 (≈ 39.8 µM)	–
CCCCCCn1c(=O)c(C(=O)OCC)c(OC(=O)c2cccn2C)c2cc(C)ccc21 [Compound 103]	–	–	IC50 (HSV-2 (strain MS); [5]): 25 µg/mL (≈ 57 µM)
CCCCCCn1c(=O)c(Cn2ncnn2)c(OC)c2cc(C)ccc21 [Compound 13, 1-hexyl-3-(2-tetrazolylmethyl)-4-methoxy-6-methyl-2(1H)-quinolinone]	5 (≈ 14.1 µM)	17 (≈ 47.8 µM)	–
CCCCCCn1c(=O)c(C2NCCS2)c(OC)c2cc(C)ccc21 (stereo not shown) [Compound 8, 1-Hexyl-3-(2-thiazolidinyl)-4-methoxy-6-methyl-2(1H)-Quinolinone]	–	3 (≈ 8.32 µM)	IC50 (HSV-2 (strain MS); [6]): < 3 µg/mL
CCCCCCn1c(=O)c(Cn2ccnc2)c(OC)c2cc(C)ccc21 [Compound 11, 1-Hexyl-3-(1H-imidazol-1-ylmethyl)-4-methoxy-6-methyl-2(1H)-quinolinone]	4.5 (≈ 12.7 µM)	17 (≈ 48.1 µM)	–
CCCCCCn1c(=O)c(Cn2cncn2)c(OC)c2cc(C)ccc21 [Compound 10, 1-Hexyl-3-(1,2,4-Triazol-1-ylmethyl)-4-Methoxy-6-Methyl-2(1H)-Quinolinone]	4 (≈ 11.3 µM)	> 100	–
CCOC(=O)c1c(OC(=O)c2ccc[nH]2)c2ccccc2n(C)c1=O [Compound 101]	–	–	IC50 (HSV-2 (strain MS); [5]): 20 µg/mL (≈ 58.8 µM); CC50 at 24 h ([1]; Table IV compound, read-out: Cytotoxicity 3H-Leu Assay IC50): 40 µg/mL (≈ 118 µM)
CCCCCCn1c(=O)c(C=NO)c(OC)c2cc(C)ccc21 [Compound 4, 1-Hexyl-3-Oximinomethyl-4-Methoxy-6-Methyl-2(1H )-Quinolinone]	–	100 (≈ 316 µM)	IC50 (HSV-2 (strain MS); [6]): 3 µg/mL (≈ 9.48 µM)
CCOC(=O)c1c(OC)c2ccccc2n(C)c1=O [Compound 107]	–	–	IC50 (HSV-2 (strain MS); [5]): > 25 µg/mL
